In patent publication US5525626A (priority 1989, dated 1996):

Experiments:
[1] = tested on: TP 242 MG cells; assay: growth curve, glioblastoma cells; assay type: cell-based, human; settings: for Cell count: 25 μM/ml
Procedure: (§1) The neuroblastoma cell line and the three glioblastoma cell lines were cultivated in Ham's F10 medium enriched with 10% fetal calf serum (FCS) and the usual quantity of penicillin, streptomycin (Pen/Strep) and glutamine. The epidermoidal cell line was cultivated in modified Eagle's Medium (MEM), likewise enriched with 10% (FCS) and the usual quantity of glutamine and Pen/Strep.
(§2) In each case 5×10^4 cells were plated out in T25 bottles, the untreated cells being incubated in analogous conditions as control. The cell count was microscopically determined after 3, 5, 7, 10 and 12 days.

[2] = tested on: U 178 MG cells; assay: growth curve, glioblastoma cells; assay type: cell-based, human; settings: for Cell count: 25 μM/ml
Procedure: as §1, §2

[3] = tested on: TP 336 MG cells; assay: growth curve, glioblastoma cells; assay type: cell-based, human; settings: for Cell count: 10 μM/ml
Procedure: as §1, §2

[4] = tested on: Daudi leukemic cells; assay: 3H-thymidine assay; assay type: cell-based; settings: Homo sapiens
[5] = tested on: TP 410 N cells; assay: growth curve, neuroblastoma cells; assay type: cell-based, human; settings: for Cell count: 25 μM/ml
Procedure: as §1, §2

[6] = tested on: U 178 MG, TP 410 N, TP 242 MG, TP 336 MG and A 431 cells; settings: 37.5 μM/ml, 48 hours
Procedure: as §1
Untreated cells served as a control. Subsequently, the cells were incubated for 8 hours with ^3 H-thymidine. The radioactivity absorbed by the cells was measured in the usual way.

[7] = tested on: DU-145 cells; assay: cell growth, combination with TNF; assay type: cell-based; settings: 7-OH-1,2-BP 500 μM/ml; TNF 1 nM/ml; combination 500 μM/1 nM; 4 days; 3×10^4 cells/well; control 51.86 + 3.06
From the text: (§3) Various cell lines (DU-145, PC-3 and LNCaP) from prostate carcinomas were used.
(§4) Initial cell count: 3×10^4 cells/well; exposure period: DU-145, PC-3: 4 days; LNCaP: 6 days

[8] = tested on: G-361 melanoma cells; assay: 3H-thymidine assay; assay type: cell-based; settings: Homo sapiens, G-361
[9] = tested on: Tp 483 MG glioblastoma cells; assay: 3H-thymidine assay; assay type: cell-based
[10] = tested on: A-375 melanoma cells; assay: 3H-thymidine assay; assay type: cell-based; settings: Homo sapiens, A-375
[11] = tolerance study in patients with malignant tumors; assay type: in vivo, human
From the text: Over 8 consecutive weeks the patients were examined once a week for signs of systemic toxicity and organic dysfunctions.

[12] = tested on: LNCap cells; assay: cell growth in combination with testosterone; assay type: cell-based, human
[13] = tested on: LNCap cells; assay: growth inhibition of prostatic carcinoma cells (Table 1); assay type: cell-based, human; settings: 250 μmol/ml, after 10 days
[14] = tested on: GV-1 prostate carcinoma cells; assay: 3H-thymidine assay; assay type: cell-based
[15] = tested on: LNCap cells; assay: cell growth, combination with TNF; assay type: cell-based, human; settings: 7-OH-1,2-BP 500 μM/ml; TNF 1 nM/ml; combination 500 μM/1 nM; 6 days; 3×10^4 cells/well; control 61.40 + 3.70
From the text: as §3, §4

[16] = tested on: MCF 7 cells; assay: growth inhibition of breast cancer cells (Table 1, Example 2); assay type: cell-based, human
From the text: The MCF 7 cell line from breast cancer was cultivated in DMEM-S 10, enriched with 10% FCS, for 10 days in the usual way.

[17] = tested on: brain-tumor cells (glioblastoma cells); assay: growth inhibition of brain-tumor cells; assay type: cell-based; settings: Tables 1 to 3
[18] = tested on: EJ cells; assay: growth inhibition of bladder carcinoma cells (Table 1); assay type: cell-based, human; settings: 200 μmol/ml, after 10 days
[19] = Homo sapiens, 288 h, 25 μM/ml (Table 2), read-out: % growth inhibition compared with control after 12 days
[20] = 1 μM/ml, read-out: 3H-thymidine tracer (%) of control
[21] = 2 μM/ml, read-out: 3H-thymidine tracer (%) of control
[22] = 4 μM/ml, read-out: 3H-thymidine tracer (%) of control
[23] = 8 μM/ml, read-out: 3H-thymidine tracer (%) of control
[24] = 16 μM/ml, read-out: 3H-thymidine tracer (%) of control
[25] = 25 μM/ml, read-out: 3H-thymidine tracer (%) of control
[26] = 50 μM/ml, read-out: 3H-thymidine tracer (%) of control
[27] = 100 μM/ml, read-out: 3H-thymidine tracer (%) of control
[28] = 250 μM/ml, read-out: 3H-thymidine tracer (%) of control
[29] = 500 μM/ml, read-out: 3H-thymidine tracer (%) of control
[30] = Table 4, read-out: active substance concentration at which 3H-thymidine insertion was 50% inhibited
[31] = Table 4, *: maximum usable dosage, no 50% inhibition, read-out: active substance concentration at which 3H-thymidine insertion was 50% inhibited

## O=c1ccc2ccc(O)cc2o1 [7-OH-1,2-BP, 7-hydroxy-1,2-benzopyrone]
[1]; after 3 days, control 10
  Cell count: 4 × 10^4
[1]; after 5 days, control 15
  Cell count: 6 × 10^4
[1]; after 7 days, control 23
  Cell count: 8 × 10^4
[1]; after 10 days, control 49
  Cell count: 10 × 10^4
[1]; after 12 days, control 57
  Cell count: 12 × 10^4
[1]; [19]
  inhibition at 25 µM: 79%
[2]; after 3 days, control 23
  Cell count: 15 × 10^4
[2]; after 5 days, control 57
  Cell count: 13 × 10^4
[2]; after 7 days, control 84
  Cell count: 26 × 10^4
[2]; [19]
  inhibition at 25 µM: 74%
[3]; after 3 days, control 13
  Cell count: 7 × 10^4
[3]; after 5 days, control 25
  Cell count: 11 × 10^4
[3]; after 7 days, control 39
  Cell count: 22 × 10^4
[3]; after 10 days, control 34
  Cell count: 18 × 10^4
[3]; after 12 days, control 45
  Cell count: 18 × 10^4
[3]; Homo sapiens, 288 h, 10 μM/ml (Table 2), read-out: % growth inhibition compared with control after 12 days
  inhibition at 10 µM: 60%
[4]; [20]
  activity at 1 µM: 98%
[4]; [21]
  activity at 2 µM: 89%
[4]; [22]
  activity at 4 µM: 82%
[4]; [23]
  activity at 8 µM: 76%
[4]; [24]
  activity at 16 µM: 63%
[4]; [25]
  activity at 25 µM: 54%
[4]; [26]
  activity at 50 µM: 49%
[4]; [27]
  activity at 100 µM: 38%
[4]; [28]
  activity at 250 µM: 35%
[4]; [29]
  activity at 500 µM: 28%
[4]; [30]
  IC50: 50 µM
[5]; after 3 days, control 25
  Cell count: 8 × 10^4
[5]; after 5 days, control 45
  Cell count: 20 × 10^4
[5]; after 7 days, control 71
  Cell count: 36 × 10^4
[5]; Homo sapiens, Neuroblastoma cell, 288 h, 25 μM/ml (Table 2), read-out: % growth inhibition compared with control after 12 days
  inhibition at 25 µM: 62%
[6]
  cytotoxic / cytostatic effect: not cytotoxic for any of the cells, but cytostatic
[7]
  Cell growth: 38.30 + 2.92
[8]; [20]
  activity at 1 µM: 94%
[8]; [21]
  activity at 2 µM: 91%
[8]; [22]
  activity at 4 µM: 77%
[8]; [23]
  activity at 8 µM: 77%
[8]; [24]
  activity at 16 µM: 74%
[8]; [25]
  activity at 25 µM: 68%
[8]; [26]
  activity at 50 µM: 58%
[8]; [27]
  activity at 100 µM: 53%
[8]; [28]
  activity at 250 µM: 42%
[8]; [29]
  activity at 500 µM: 38%
[8]; [31]
  IC50: 125 µM
[9]; 1 μM/ml, read-out: 3H-thymidine insertion (%) of control
  activity at 1 µM: 97%
[9]; 2 μM/ml, read-out: 3H-thymidine insertion (%) of control
  activity at 2 µM: 95%
[9]; 4 μM/ml, read-out: 3H-thymidine insertion (%) of control
  activity at 4 µM: 89%
[9]; 8 μM/ml, read-out: 3H-thymidine insertion (%) of control
  activity at 8 µM: 81%
[9]; 16 μM/ml, read-out: 3H-thymidine insertion (%) of control
  activity at 16 µM: 69%
[9]; 25 μM/ml, read-out: 3H-thymidine insertion (%) of control
  activity at 25 µM: 66%
[9]; 50 μM/ml, read-out: 3H-thymidine insertion (%) of control
  activity at 50 µM: 39%
[9]; 100 μM/ml, read-out: 3H-thymidine insertion (%) of control
  activity at 100 µM: 32%
[9]; 250 μM/ml, read-out: 3H-thymidine insertion (%) of control
  activity at 250 µM: 27%
[9]; 500 μM/ml, read-out: 3H-thymidine insertion (%) of control
  activity at 500 µM: 25%
[9]; [30]
  IC50: 25 µM
[10]; [20]
  activity at 1 µM: 100%
[10]; [21]
  activity at 2 µM: 92%
[10]; [22]
  activity at 4 µM: 86%
[10]; [23]
  activity at 8 µM: 81%
[10]; [24]
  activity at 16 µM: 72%
[10]; [25]
  activity at 25 µM: 64%
[10]; [26]
  activity at 50 µM: 53%
[10]; [27]
  activity at 100 µM: 49%
[10]; [28]
  activity at 250 µM: 47%
[10]; [29]
  activity at 500 µM: 44%
[10]; [31]
  IC50: 100 µM
[11]; 50 mg/day increased up to 2000 mg/day, 8 weeks, 60 patients
  side-effects: no side-effects at all had occurred
[11]; long-term administration, 7000 mg/day
  toxic side-effects: Toxic side-effects were not observed
[12]; 500 μM 7-OH-1,2-BP/ml medium combined with 20 nM testosterone
  inhibition of cell growth: virtually complete inhibition of cell growth
[12]; for example testosterone
  increase of growth inhibition by additional hormone therapy: can be increased by additional hormone therapy
[13]
  % Growth inhibition compared with control: 66%
[14]; [20]
  activity at 1 µM: 100%
[14]; [21]
  activity at 2 µM: 89%
[14]; [22]
  activity at 4 µM: 83%
[14]; [23]
  activity at 8 µM: 75%
[14]; [24]
  activity at 16 µM: 69%
[14]; [25]
  activity at 25 µM: 63%
[14]; [26]
  activity at 50 µM: 51%
[14]; [27]
  activity at 100 µM: 39%
[14]; [28]
  activity at 250 µM: 36%
[14]; [29]
  activity at 500 µM: 27%
[14]; [30]
  IC50: 75 µM
[15]
  Cell growth: 11.0 + 1.10
[16]; 200 μmol/ml, after 10 days
  % Growth inhibition compared with control: 64%
[16]; Example 2, FIG. 1
  cytostatic effect on breast cancer cells: clearly show the cytostatic effect
[17]
  growth-inhibiting effect on brain-tumor cells: strong growth-inhibiting effect on brain-tumor cells
[18]
  % Growth inhibition compared with control: 26%
